Efficacy and AC50 cell viability data for 51 molecules are collected here from the supplement of paper PMC10290057.

Counter-ions that a name gives are not always drawn.

In test [1] the test system is HCT116. Put plainly: efficacy (fitted maximal change in viability relative to DMSO control); higher = less cytotoxic (negative = loss of viability). To be noted: 48 h.
Test [2] relates to HCT116. Put plainly: AC50 cell viability (CellTiter-Glo); higher = less potent. To be noted: 48 h.
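Throughout, for AC50 cell viability (CellTiter-Glo): HCT116 colorectal carcinoma cells screened at five concentrations per compound, luminescent viability scaled between DMSO wells and empty wells on each plate, curves fitted per compound.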
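Throughout, for efficacy (fitted maximal change in viability relative to DMSO control): Luminescence-based viability readout, five doses per compound, normalized against on-plate DMSO and empty-well controls, followed by dose-response curve fitting for every drug.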

Turning to `Cc1cc(C[S+](=O)([O-])c2ccccc2)cc(OCc2ccc(CN3CCC[C@@H]3CO)cc2)c1` [PF-543], in the test on HCT116 [1], the efficacy was -92.7%. In the test on HCT116 [2], this molecule had an AC50 cell viability of 16.6 µM.
In the case of `O=C(Nc1cccnc1)N1CCC(Cc2cccc(Oc3ccc(C(F)(F)F)cn3)c2)CC1` [PF-3845], the efficacy with HCT116 [1] is -82.1%. Also, the AC50 cell viability in the test on HCT116 [2] was 13.2 µM.
On the same counts, the results for `CCCOc1ccc(CCc2nc3cc(-c4c(C)noc4C)ccc3n2CCN2CCOCC2)cc1` [PF-CBP1] are -94.5% and 14.8 µM.
On the same counts, the results for `O=C(/C=C/c1ccc2ccc(C(F)(F)F)cc2n1)c1ccncc1` [PFK-158] are -89% and 3.72 µM.
On the same counts, the results for `CN1CCN(c2cc(C(=O)Nc3ccc4c(c3)-c3c(c(C(N)=O)nn3-c3ccc(F)cc3)CC4)c(Cl)cn2)CC1` [PHA-408] are -98.2% and 20.9 µM.
On to `Oc1cccc(-c2nc(N3CCOCC3)c3oc4ncccc4c3n2)c1` [PI-103], for which the efficacy with HCT116 [1] was -57.3%. The molecule also had an AC50 cell viability in the test with HCT116 [2] of 1.32 µM.
On the same counts, the results for `Fc1ccc2[nH]ccc2c1-c1nc(N2CCOCC2)c2sc(CN3CCN(CC4CC4)CC3)cc2n1` [PI-3065] are -95.1% and 18.6 µM.
For `Cc1ccc([N+](=O)[O-])cc1[S+](=O)([O-])N(C)/N=C/c1cnc2ccc(Br)cn12` [PIK-75], in that order: -60.8% and 0.0525 µM.
For `COC1=CC=C2/C3=N/CCN3\C(=N/C2=C1OC)NC(=O)C4=CC=CN=C4` [PIK-90], in that order: -37.1% and 0.263 µM.
Consider `CC(=O)Nc1nc(C)c(-c2ccc(Cl)c([S+](=O)([O-])NCCO)c2)s1` [PIK-93], for which the efficacy in the test with HCT116 [1] was -85.9%. In the test with HCT116 [2], this molecule registered an AC50 cell viability of 8.33 µM.
For `C[C@@H](Nc1ncnc2[nH]c(-c3ccc(O)cc3)cc12)c1ccccc1` [PKI-166], in that order: -84.7% and 14.8 µM.
On the same counts, the results for `CCn1nnc2c(N3CCOCC3)nc(-c3ccc(NC(=O)Nc4ccc(C(=O)N5CCN(C)CC5)cc4)cc3)nc21` [PKI-402] are -64.4% and 0.118 µM.
As for `FC(F)(F)c1ccc(C/N=c2\ccc(Cc3c[nH]c4ncccc34)c[nH]2)cc1` [PLX-647], the efficacy with HCT116 [1] was -76.1%. Moreover, the AC50 cell viability with HCT116 [2] is 13.2 µM.
For `CCC[S+](=O)([O-])Nc1ccc(F)c(C(=O)c2c[nH]c3ncc(Cl)cc23)c1F` [PLX-4720], in that order: -38.4% and 16.6 µM.
For `CCN(C)[S+](=O)([O-])Nc1ccc(F)c(C(=O)c2c[nH]c3ncc(-c4cnc(C5CC5)nc4)cc23)c1F` [PLX-7904], in that order: -69.9% and 16.6 µM.
For `O=C(c1c(F)ccc(N[S+](=O)([O-])N2CC[C@@H](F)C2)c1F)c1c[nH]c2ncc(-c3cnc(C4CC4)nc3)cc12` [PLX-8394], in that order: -51.7% and 13.2 µM.
Consider `Nc1ncnc2c1c(-c1cnc3[nH]ccc3c1)nn2C1CCCC1` [PP-121], for which the efficacy in the test with HCT116 [1] was -86.5%. The same molecule gave an AC50 cell viability with HCT116 [2] of 2.63 µM.
For `CN[S+](=O)([O-])c1ccc2c(c1)/C(=C/c1[nH]c3c(c1CCCN1CCN(C)CC1)CCCC3)C(=O)N2` [PRP01-012], in that order: -103% and 14.8 µM.
For `CCc1ccc(C(=O)Nc2cc(CN3CCN(C)CC3)cc(C(F)(F)F)c2)cc1C#Cc1cnc2ccnn2c1` [PRP003-013], in that order: -100% and 4.68 µM.
For `COC(C)(C)CCn1nc(Nc2c(C)cccc2C)c2cnc(Nc3ccc(OCCN4CCCC4)c(F)c3)nc21` [PRP003-032], in that order: -122% and 14.8 µM.
Take `FC(F)(F)c1ccc(Nc2nc(-c3c(C(F)(F)F)nc4ccccn34)cs2)cc1` [PTC-691]: the efficacy with HCT116 [1] is -73.4%. In addition, the AC50 cell viability in the test with HCT116 [2] was 0.332 µM.
On the same counts, the results for `CC(C)NCCCn1c(Sc2cc(Cl)cc(Cl)c2)nc2c(N)ncnc21` [PU-WS-13] are -82.4% and 20.9 µM.
For `CCC(C)SSc1ncc[nH]1` (configuration not stated) [PX-12], in that order: -88.8% and 18.6 µM.
For `COC1=CC=C2Nc3cc(Cl)ccc3C(N=C3C=C(CN4CCCC4)C(=O)C(CN4CCCC4)=C3)=C2N1` [PYRONARIDINE TETRAPHOSPHATE], in that order: -76.4% and 9.34 µM.
Consider `C1=CC2=N/C(=N\c3ccc(OCCN4CCCC4)c(c3)COC/C=C/COCc3cccc2c3)N1` [Pacritinib], for which the efficacy in the test with HCT116 [1] was -89.9%. The AC50 cell viability with HCT116 [2] worked out at 1.86 µM.
On the same counts, the results for `CC(=O)C\1=C(/C)C2=CN=C(NC3=CC=C(C=N3)N4CCNCC4)N=C2N(C5CCCC5)C1=O` [Palbociclib] are -109% and 16.6 µM.
In the case of `Cc1[nH]c2ccccc2c1CCNCc1ccc(/C=C/C(=O)NO)cc1` [Panobinostat], in the test with HCT116 [1], the efficacy is -87.7%. Besides, the AC50 cell viability in the test with HCT116 [2] amounted to 0.0468 µM.
With `COc1ccc(Cc2nccc3cc(OC)c(OC)cc23)cc1OC` [Papaverine hydrochloride], the efficacy in the test with HCT116 [1] was -61.1%. Also, the AC50 cell viability in the test with HCT116 [2] amounted to 4.17 µM.
On the same counts, the results for `CCCCc1ccc2[nH]c(NC(=O)OC)nc2c1` [Parbendazole] are -63.1% and 0.105 µM.
Turning to `[2H]C([2H])([2H])C(O)([C@@H](C)/C=C/[C@@H](C)[C@H]1CC[C@H]2/C(=C/C=C3C[C@@H](O)C[C@H](O)C3)CCC[C@]12C)C([2H])([2H])[2H]` [Paricalcitol-D6 (ABT-358)], the efficacy in the test on HCT116 [1] was -54%. The AC50 cell viability in the test on HCT116 [2] was found to be 18.6 µM.
For `ClC1=CC=C(CCCOC/2=N/NC(=O)C(=C2NCC3=CN=CC=C3)/Br)C=C1` [Parogrelil], in that order: -86.2% and 18.6 µM.
For `C=C1C(=O)O[C@@H]2[C@H]3O[C@]3(C)CC/C=C(\C)CC[C@@H]12` [Parthenolide], in that order: -97.4% and 13.2 µM.
Consider `C[C@@H]1CN[C@H]2[C@@H](C)[C@@]3(CC[C@H]4[C@@H]5CC[C@@H]6C[C@@H](CC[C@]6(C)[C@H]5C\C4=C(C)\C3)N[S+](C)([O-])=O)O[C@@H]2C1` [Patidegib], for which the efficacy in the test on HCT116 [1] was -94.4%. Moreover, in the test with HCT116 [2], the AC50 cell viability came out at 14.8 µM.
As to `Cc1ccc(Nc2nccc(N(C)c3ccc4c(C)n(C)nc4c3)n2)cc1[S+](N)(=O)[O-]` [Pazopanib], the efficacy in the test on HCT116 [1] is -51.5%. The AC50 cell viability in the test with HCT116 [2] was 5.25 µM.
For `NC(=O)c1cnc2[nH]ccc2c1NC1C2CC3C[C@H]1CC(O)(C3)C2` (some centres not stated) [Peficitinib], in that order: -67.2% and 7.42 µM.
On the same counts, the results for `CCOc1cc2ncc(C#N)c(Nc3ccc(F)c(Cl)c3)c2cc1NC(=O)/C=C/CN(C)C` [Pelitinib] are -97.7% and 5.9 µM.
For `NC/1=N/C(=O)C2=C([NH]C=C2CCC3=CC=C(C=C3)C(=O)N[C@@H](CCC(O)=O)C(O)=O)N1` [Pemetrexed], in that order: -40.7% and 0.742 µM.
Regarding `N=C(N)c1ccc(OCCCCCOc2ccc(C(=N)N)cc2)cc1` [Pentamidine isethionate], the efficacy with HCT116 [1] was -54.5%. Also, the AC50 cell viability in the test on HCT116 [2] turned out to be 20.9 µM.
For `C1CCC(C(CC2CCCCN2)C2CCCCC2)CC1` (configuration not stated) [Perhexiline], in that order: -92.2% and 6.61 µM.
For `Cc1ccc(-n2nc(C(C)(C)C)cc2N/C(O)=N/Cc2cc(F)ccc2Oc2ccc3c(cnn3CCO)c2)cc1` [Pexmetinib], in that order: -98.4% and 10.5 µM.
On the same counts, the results for `N=C(N)NC(=N)NCCc1ccccc1` [Phenformin hydrochloride] are -38.6% and 13.2 µM.
Take `CC1=CC=C(C=C1)N(C\C2=N\CCN2)C3=CC=CC(=C3)O` [Phentolamine mesilate]: in the test with HCT116 [1], the efficacy was -60%. In the test with HCT116 [2], this molecule came in with an AC50 cell viability of 20.9 µM.
On the same counts, the results for `Oc1cc(O)cc(/C=C/c2ccc(O)c(O)c2)c1` [Piceatannol] are -69% and 26.3 µM.
On the same counts, the results for `CC\1=C/C=C\C=[N]1[Pt](N)(Cl)Cl` [Picoplatin] are -50.8% and 20.9 µM.
On to `COc1cc([C@@H]2c3cc4c(cc3[C@H](O)[C@H]3COC(=O)[C@@H]23)OCO4)cc(OC)c1OC` [Picropodophyllin], for which, in the test on HCT116 [1], the efficacy was -56.6%. For the same molecule, in the test with HCT116 [2], the AC50 cell viability stood at 0.417 µM.
As for `C[S+](=O)([O-])N1CCN(Cc2cc3nc(-c4cccc5[nH]ncc45)nc(N4CCOCC4)c3s2)CC1` [Pictilisib], in the test on HCT116 [1], the efficacy is -78.3%. Besides, the AC50 cell viability in the test with HCT116 [2] worked out at 3.32 µM.
On to `COc1ccc(Cl)c(Nc2nc3ccccc3nc2N[S+](=O)([O-])c2cccc(NC(=O)C(C)(C)N)c2)c1` [Pilaralisib], for which the efficacy in the test with HCT116 [1] was -39.5%. Further, the AC50 cell viability in the test with HCT116 [2] worked out at 16.6 µM.
For `O=C(NC[C@H](O)CO)c1ccncc1Nc1ccc(I)cc1F` [Pimasertib], in that order: -44.3% and 0.118 µM.
Regarding `COC1=CC=C(C=C1)C2=NC3=CC(=CC=C3[NH]2)/C4=N/NC(=O)CC4C` (configuration not stated) [Pimobendan], the efficacy in the test on HCT116 [1] was -48.6%. The AC50 cell viability in the test with HCT116 [2] was 9.34 µM.
On the same counts, the results for `c1ccc(-c2cc(CCC3CCNCC3)c3ccccc3n2)cc1` [Pipequaline] are -108% and 16.6 µM.
On the same counts, the results for `O=C(/C=C/C=C/c1ccc2c(c1)OCO2)N1CCCCC1` [Piperine] are -46% and 20.9 µM.
